In patent US8734775B2, “Chemokine derived peptides that bind with chemokine receptor CXCR3 and uses for chronic wound and angiogenesis inhibition treatments” (University of Pittsburgh, priority 2011, dated 2014):

Key:
HMEC-1 cells = test: Scratch assay of endothelial cell motility; assay type: cell-based, human; conditions: 24 hours
Protocol: To determine whether IP-10dp inhibits endothelial cell motility, a conventional “scratch assay” was performed. ELR-negative chemokines, such as IP-10, inhibit fibroblast and endothelial cell motility. IP-10 has been shown in prior literature to inhibit HMEC-1 cells' motility in the presence of angiogenic growth factors VEGF165 and bFGF. Thus, a scratch assay comparison was conducted to examine whether, and to what extent, IP-10dp could mimic the inhibitory effects of the full length IP-10. HMEC-1 cells were plated at 2.5×10^5 cells/well in 12 well culture plates and grown to 80 to 85% confluence and quiesced in 0.5% dialyzed fetal bovine serum for 24 hours at 37° C. in 5% CO2. The cells were washed one time with PBS and then incubated in 0.5% dialyzed MDCB 131 media for 24 hours at 37° C. in 5% CO2. The cultures were scraped with a rubber policeman making a 1 mm wide denuded area. […] Images were taken at time zero and 24 hours, and the relative distance traveled by the cells into the a cellular area was determined using MetaMorph. The HMEC-1 culture images were analyzed for the ability of the cells to migrate into a denuded area over a 24 hour period in the presence or absence of VEGF165.

[1] = system: HMEC-1 cells treated with CXCR3 siRNA; test: Tube formation in CXCR3 siRNA-treated cells; assay type: cell-based, human; conditions: CXCR3 knockdown; concentrations as in Experiment 3
Protocol: In the various experiments detailed below, unless otherwise noted, siRNA down regulation of CXCR3 was accomplished according to the following procedure. HMEC-1 cells were plated at 5.5×10^5 cells/60 mm dish and incubated overnight. The cells were 90-95% confluent. Cells were transfected with 4 μM siRNA (2 μM Sigma, 2 μM Santa Cruz) using Dharamacon #4 transfection reagent. The cells were incubated for 24 hours, and then placed in EGM-2MV media for 48 hours. The cells were then transfected again as indicated above. After 48 hours of incubation in EGM-2MV media the cells were then used for experimentation.
In the various experiments described below, to the extent not otherwise noted, CXCR3 siRNA transfection was preformed according to the procedure as previously described by Koh et al. (“Methods in Enzymology,” 2008, vol 443, p. 84), and summarized briefly as follows. HMEC-1 cells were plated in 6 well tissue culture plate at 4.0×10^5 cells/well in complete MCDB131 media and incubated overnight. The cells were ˜75% confluent. The media was removed and replaced with serum free Opti-Mem and incubated for 30 minutes. Dharmafect #4 was added to Opti-Mem to a final concentration of 2.5% (final volume […]) then incubated for 5 minutes at room temp. In parallel, CXCR3 siRNA was diluted in Opti-Mem to a final concentration of […] then incubated for 5 minutes at room temp. […]

**Q.** With “PESKAIKNLLKAVSKEMSKRSP (IP-10dp; listed as Homo sapiens) [synthetic fragment of IP-10 comprising residues 78-98, the C-terminal α-helical domain]” as the sequence, how does the “inhibition of endothelial cell migration, excess over IP-10” value (HMEC-1 cells; IP-10dp 10 μM vs IP-10 200 ng/ml) read?
**A.** Its value is 10%.

**Q.** What about the “inhibition of HMEC-1 cell motility” value (HMEC-1 cells; IP-10dp 10 μM, with and without VEGF (100 ng/ml)) of the same sequence?
**A.** The value was “inhibited motility”.

**Q.** What about the “formation of tubes in CXCR3 siRNA-treated cells” value [1] of the same sequence?
**A.** Its value is “did not show a significant difference”.
